Test results from patent publication US8703156B2, “Liquid formulation for deferiprone with palatable taste” (Apotex Technologies Inc., priority 2008, dated 2014).
Peptide text beside a SMILES is read from it.

Assay: degradation of Aspartame following 2 months storage
Assay type: physicochemical
Settings: pH below 3.4; confirmed by degradation following 2 months storage
Excerpt: The sweetener was changed to Aspartame. After another round of taste testing the formulation with 10 g/L of Aspartame became the most acceptable formulation in terms of taste tolerability, but Aspartame is unstable at pH below 3.4 and this was confirmed by testing the degradation of Aspartame following 2 months storage.

- stability of Aspartame: unstable
Structure (SMILES): COC(=O)[C@H](Cc1ccccc1)NC(=O)[C@@H](N)CC(=O)O [Aspartame] (HELM PEPTIDE1{D.F.[CO[*:1]]}$$$$V2.0)
